Data set [1] in a line: Solubility at pH 6.8. Conditions: pH 6.8, aqueous buffer, thermodynamic from solid; read-out: solubility. The class given is physicochemical. In short, it runs like this:
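Following the procedure of Zhou et al. (2007), compound solubility was determined at pH 6.8.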

The target in data set [2] is T1, PI3K alpha (Homo sapiens, UniProt P42336).
T1 construct: p85(iSH2) fusion partner (see partner chain) (N); His tag (C); made in house; host or cells: baculovirus; Tn5 (Trichoplusia ni) or TiniPro insect cells
The data set can be described thus: PI3K alpha kinase assay (Kinase-Glo luminescence). The format is biochemical. In short, it runs like this:
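Enzyme 10 nM PI3Kα EMV B1075; ATP 1 μM; PI 10 μg/mL; Tris-HCl pH 7.5 10 mM, MgCl2 3 mM, NaCl 50 mM, CHAPS 0.05%, DTT 1 mM; 60 min RT; Kinase-Glo luminescence; 4-parameter IC50 fit, 8 concentrations, single points.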
In general terms: Kinase-Glo measures the ATP left after a reaction by luminescence.

The target of data set [3] is T2, PI3K delta (Homo sapiens, UniProt O00329).
T2 construct: for the full-length p110-d subunit are generated and fused by overlapping PCR; p85(iSH2) fusion partner (see partner chain) (N); His tag (C); made in house; host or cells: baculovirus; Tn5 (Trichoplusia ni) or TiniPro insect cells
Description: PI3K delta kinase assay (Kinase-Glo luminescence). The class given is biochemical. Put shortly:
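Lipid kinase activity of a His-tagged p110δ full-length/p85 iSH2 fusion (10 nM) toward bovine liver phosphatidylinositol (10 μg/mL) at 1 μM ATP, pH 7.5, 60 min, room temperature. ATP consumption is quantified by luciferase-based luminescence. Four-parameter logistic fitting gives IC50.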

Data set [4] has as its target T3, PI3K gamma (Homo sapiens, UniProt P48736).
T3 construct: His tag (C); made in house; host or cells: baculovirus (pVL1393); Tn5 or TiniPro insect cells; construct from Roger Williams lab, MRC LMB
Description: PI3K gamma kinase assay (Kinase-Glo luminescence). The class given is biochemical. The method, then:
In a more preferred assay, the kinase reaction is performed in a final volume of 10 μL per well of a low volume non binding CORNING, 384 well black plate (Cat. No. #3676). The final concentrations of ATP and phosphatidyl inositol (PI) in the assay are 1 μM and 10 μg/mL respectively. The reaction is started by the addition of ATP.
The components of the assay are added per well as follows:
[…] in 90% DMSO per well, in columns 1-20, 8 concentrations (1/3 and 1/3.33 serial dilution step) in single. • Low control: […] of 90% DMSO in half the wells of columns 23-24 (0.45% in final). • High control: […] of reference compound (e.g. compound of Example 7 in WO 2006/122806) in the other half of columns 23-24 (2.5 μM in final). • Standard: […] of reference compound as just mentioned diluted as the test compounds in columns 21-22 • 20 mL ‘buffer’ are prepared per assay: • 200 μL of 1M TRIS HCl pH7.5 (10 mM in final) • 60 μL of 1M MgCl2 (3 mM in final) • 500 μL of 2M NaCl (50 mM in final) • 100 μL of 10% CHAPS (0.05% in final) • 200 μL of 100 mM DTT (1 mM in final) • 18.94 mL of nanopure water • 10 mL ‘PI’ are prepared per assay: • 200 μL of 1 mg/ml L-alpha-Phosphatidylinositol (Liver Bovine, Avanti Polar Lipids Cat. No. 840042C MW=909.12) prepared in 3% OctylGlucoside (10 μg/ml in final) • 9.8 mL of ‘buffer’ • 10 mL ‘ATP’ are prepared per assay: • 6.7 μL of 3 mM stock of ATP giving a final concentration of 1 μM per well • 10 mL of ‘buffer’ • 2.5 mL of each PI3K construct are prepared per assay in ‘PI’ with the following final concentration: • 10 nM PI3K alfa EMV B1075 • 25 nM beta EMV BV949 • 10 nM delta EMV BV1060 • 150 nM gamma EMV BV950 • 5 μL of ‘PI/PI3K’ are added per well. • 5 μl ‘ATP’ are added per well to start the reaction. • The plates are then incubated at room temperature for 60 minutes (alfa, beta, delta) or 120 minutes (gamma). • The reaction is terminated by the addition of 10 μL Kinase-Glo (Promega Cat. No. #6714). • The assay plates are read after 10 minutes in Synergy 2 reader (BioTek, Vermont USA) with an integration time of 100 milliseconds and sensitivity set to 191. • Output: The High control is around 60'000 counts and the Low control is 30'000 or lower • This luminescence assay gives a useful Z′ ratio between 0.4 and 0.7
IC50 is determined by a four parameter curve fitting routine that comes along with “excel fit”. […] Alternatively, IC50 values are calculated using idbsXLfit model 204, which is a 4 parameter logistic model.

The test system of data set [5] is PKB Ser473 phosphorylation in Rat1-myr-HA-p110 alpha cells. The data set can be described thus: Reverse protein array assay, PKB Ser473 phosphorylation in Rat1-myr-p110 alpha cells. The format is cell-based. As to conditions: 0.5 h, pAkt Ser473, 30 minutes compound incubation, read-out: p-PKB IC50. Put shortly:
(§1)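 Compound exposure lasted 30 min in Rat1 cells bearing membrane-targeted HA-p110 isoforms, using 8 serial concentrations. Arrayed lysates, each spotted at four dilutions, gave relative fluorescence signals for phospho-Ser473 PKB.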

Data set [6] deals with PKB Ser473 phosphorylation in Rat1-myr-HA-p110 beta cells. Description: Reverse protein array assay, PKB Ser473 phosphorylation in Rat1-myr-p110 beta cells. The format is cell-based. As to conditions: 0.5 h, pAkt Ser473, 30 minutes incubation, read-out: p-PKB IC50. Put shortly:
as §1

Data set [7] has as its target T4, PI3K beta (Homo sapiens, UniProt P42338).
T4 construct: for the full-length p110-b subunit are generated and fused by overlapping PCR; p85(iSH2) fusion partner (see partner chain) (N); His tag (C); made in house; host or cells: baculovirus; Tn5 (Trichoplusia ni) or TiniPro insect cells
Description: PI3K beta kinase assay (Kinase-Glo luminescence). The class given is biochemical. In short, it runs like this:
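IC50 is derived by four-parameter logistic curve fitting of Kinase-Glo luminescence, which measures ATP left after a 60 min room-temperature reaction. Conditions are 25 nM His-tagged p85(iSH2)-p110β, 1 μM ATP and 10 μg/mL bovine liver phosphatidylinositol.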

In data set [8] the test system is PKB Ser473 phosphorylation in Rat1-myr-HA-p110 delta cells. Description: Reverse protein array assay, PKB Ser473 phosphorylation in Rat1-myr-p110 delta cells. Conditions: read-out: p-PKB IC50. The format is cell-based. In short, it runs like this: as §1

Converted amounts (≈) assume the structure as drawn.

T4 sequence (P42338 with tags, fused parts or gaps limits assumed): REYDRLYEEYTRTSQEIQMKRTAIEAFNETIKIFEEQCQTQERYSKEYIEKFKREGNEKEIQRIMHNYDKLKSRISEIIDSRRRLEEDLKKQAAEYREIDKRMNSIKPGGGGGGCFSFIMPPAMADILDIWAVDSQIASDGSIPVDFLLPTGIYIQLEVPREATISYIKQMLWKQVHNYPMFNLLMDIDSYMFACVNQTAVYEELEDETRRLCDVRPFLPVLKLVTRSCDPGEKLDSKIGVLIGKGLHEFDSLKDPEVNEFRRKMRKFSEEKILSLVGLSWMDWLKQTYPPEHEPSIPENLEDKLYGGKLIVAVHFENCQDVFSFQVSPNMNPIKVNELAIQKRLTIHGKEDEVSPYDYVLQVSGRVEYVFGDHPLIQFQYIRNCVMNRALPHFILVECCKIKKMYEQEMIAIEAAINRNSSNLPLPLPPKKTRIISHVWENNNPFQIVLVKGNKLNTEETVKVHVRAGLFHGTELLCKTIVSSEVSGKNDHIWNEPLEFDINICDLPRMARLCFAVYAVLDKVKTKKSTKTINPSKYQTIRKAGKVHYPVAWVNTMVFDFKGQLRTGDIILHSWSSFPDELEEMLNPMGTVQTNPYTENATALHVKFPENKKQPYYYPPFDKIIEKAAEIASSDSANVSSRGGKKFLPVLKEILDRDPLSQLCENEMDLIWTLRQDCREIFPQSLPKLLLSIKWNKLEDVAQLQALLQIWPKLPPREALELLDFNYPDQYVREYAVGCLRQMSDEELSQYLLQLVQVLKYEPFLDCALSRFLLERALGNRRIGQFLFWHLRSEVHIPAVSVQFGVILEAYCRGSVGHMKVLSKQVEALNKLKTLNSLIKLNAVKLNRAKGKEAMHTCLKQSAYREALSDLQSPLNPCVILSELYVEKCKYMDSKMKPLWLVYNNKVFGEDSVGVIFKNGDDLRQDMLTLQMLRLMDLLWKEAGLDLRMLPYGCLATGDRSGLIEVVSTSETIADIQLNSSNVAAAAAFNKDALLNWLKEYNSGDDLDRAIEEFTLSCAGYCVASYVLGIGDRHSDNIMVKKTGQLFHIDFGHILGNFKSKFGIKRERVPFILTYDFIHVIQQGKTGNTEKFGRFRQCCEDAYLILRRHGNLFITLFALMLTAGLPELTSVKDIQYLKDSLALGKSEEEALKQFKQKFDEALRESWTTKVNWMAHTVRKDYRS
T1 sequence (P42336 with tags, fused parts or gaps limits assumed): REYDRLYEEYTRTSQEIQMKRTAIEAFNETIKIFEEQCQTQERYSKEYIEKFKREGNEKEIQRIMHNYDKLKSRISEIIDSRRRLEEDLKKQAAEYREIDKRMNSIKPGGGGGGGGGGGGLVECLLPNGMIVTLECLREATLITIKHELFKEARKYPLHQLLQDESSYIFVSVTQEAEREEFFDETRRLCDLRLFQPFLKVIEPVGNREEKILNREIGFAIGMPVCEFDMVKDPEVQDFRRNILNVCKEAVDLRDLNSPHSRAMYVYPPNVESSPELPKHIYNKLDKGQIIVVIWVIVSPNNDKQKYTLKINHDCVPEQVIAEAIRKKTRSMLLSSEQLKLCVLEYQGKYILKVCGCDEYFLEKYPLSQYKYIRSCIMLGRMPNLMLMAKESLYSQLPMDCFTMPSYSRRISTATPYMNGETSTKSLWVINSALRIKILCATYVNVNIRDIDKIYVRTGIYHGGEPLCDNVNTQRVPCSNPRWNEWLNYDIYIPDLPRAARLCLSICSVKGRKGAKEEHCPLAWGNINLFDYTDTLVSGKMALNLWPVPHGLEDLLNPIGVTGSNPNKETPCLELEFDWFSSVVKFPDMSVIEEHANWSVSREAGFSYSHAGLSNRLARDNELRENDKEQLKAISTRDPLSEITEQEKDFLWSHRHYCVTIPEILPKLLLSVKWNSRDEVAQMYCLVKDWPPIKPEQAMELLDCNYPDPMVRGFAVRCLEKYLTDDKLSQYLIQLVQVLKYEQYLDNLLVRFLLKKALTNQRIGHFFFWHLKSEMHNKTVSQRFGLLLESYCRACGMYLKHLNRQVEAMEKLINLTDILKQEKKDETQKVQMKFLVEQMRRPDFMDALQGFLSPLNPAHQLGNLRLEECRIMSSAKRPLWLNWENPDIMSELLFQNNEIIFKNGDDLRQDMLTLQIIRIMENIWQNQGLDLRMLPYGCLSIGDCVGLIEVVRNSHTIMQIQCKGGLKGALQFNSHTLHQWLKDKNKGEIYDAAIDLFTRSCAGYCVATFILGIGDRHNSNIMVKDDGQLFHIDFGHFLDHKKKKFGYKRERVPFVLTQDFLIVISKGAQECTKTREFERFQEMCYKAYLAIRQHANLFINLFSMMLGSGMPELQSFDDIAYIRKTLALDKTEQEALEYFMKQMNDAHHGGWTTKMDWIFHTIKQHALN
T2 sequence (O00329 with tags, fused parts or gaps limits assumed): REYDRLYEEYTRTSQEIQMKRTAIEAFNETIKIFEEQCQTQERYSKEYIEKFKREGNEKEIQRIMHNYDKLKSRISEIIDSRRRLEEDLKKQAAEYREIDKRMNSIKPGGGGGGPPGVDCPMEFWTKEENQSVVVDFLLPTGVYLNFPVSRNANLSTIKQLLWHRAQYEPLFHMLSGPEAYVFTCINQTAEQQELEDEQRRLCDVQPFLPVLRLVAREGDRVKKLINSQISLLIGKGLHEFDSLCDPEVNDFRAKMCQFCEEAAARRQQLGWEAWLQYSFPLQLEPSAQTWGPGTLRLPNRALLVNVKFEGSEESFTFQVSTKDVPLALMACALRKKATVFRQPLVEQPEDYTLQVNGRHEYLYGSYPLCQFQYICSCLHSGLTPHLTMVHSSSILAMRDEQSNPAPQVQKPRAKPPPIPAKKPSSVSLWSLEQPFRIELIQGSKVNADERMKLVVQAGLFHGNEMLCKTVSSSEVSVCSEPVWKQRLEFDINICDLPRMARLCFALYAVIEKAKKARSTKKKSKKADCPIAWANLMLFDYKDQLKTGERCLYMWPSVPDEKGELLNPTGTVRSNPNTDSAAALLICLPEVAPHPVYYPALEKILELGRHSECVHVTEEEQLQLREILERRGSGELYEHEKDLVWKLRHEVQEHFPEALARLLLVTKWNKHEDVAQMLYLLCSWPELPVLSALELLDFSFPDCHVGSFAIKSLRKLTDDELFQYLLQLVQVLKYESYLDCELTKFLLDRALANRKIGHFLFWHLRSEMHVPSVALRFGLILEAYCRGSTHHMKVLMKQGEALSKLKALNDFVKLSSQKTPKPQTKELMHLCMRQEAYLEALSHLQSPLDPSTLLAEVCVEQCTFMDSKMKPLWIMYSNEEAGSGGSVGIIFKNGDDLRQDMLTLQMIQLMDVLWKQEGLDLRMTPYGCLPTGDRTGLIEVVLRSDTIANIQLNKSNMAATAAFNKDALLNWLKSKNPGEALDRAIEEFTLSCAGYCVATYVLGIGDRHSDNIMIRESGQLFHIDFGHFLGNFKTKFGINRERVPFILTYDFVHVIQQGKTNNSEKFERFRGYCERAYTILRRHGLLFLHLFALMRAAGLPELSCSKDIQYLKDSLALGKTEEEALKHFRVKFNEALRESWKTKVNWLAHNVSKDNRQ
T3 sequence (P48736 144-1102 limits assumed): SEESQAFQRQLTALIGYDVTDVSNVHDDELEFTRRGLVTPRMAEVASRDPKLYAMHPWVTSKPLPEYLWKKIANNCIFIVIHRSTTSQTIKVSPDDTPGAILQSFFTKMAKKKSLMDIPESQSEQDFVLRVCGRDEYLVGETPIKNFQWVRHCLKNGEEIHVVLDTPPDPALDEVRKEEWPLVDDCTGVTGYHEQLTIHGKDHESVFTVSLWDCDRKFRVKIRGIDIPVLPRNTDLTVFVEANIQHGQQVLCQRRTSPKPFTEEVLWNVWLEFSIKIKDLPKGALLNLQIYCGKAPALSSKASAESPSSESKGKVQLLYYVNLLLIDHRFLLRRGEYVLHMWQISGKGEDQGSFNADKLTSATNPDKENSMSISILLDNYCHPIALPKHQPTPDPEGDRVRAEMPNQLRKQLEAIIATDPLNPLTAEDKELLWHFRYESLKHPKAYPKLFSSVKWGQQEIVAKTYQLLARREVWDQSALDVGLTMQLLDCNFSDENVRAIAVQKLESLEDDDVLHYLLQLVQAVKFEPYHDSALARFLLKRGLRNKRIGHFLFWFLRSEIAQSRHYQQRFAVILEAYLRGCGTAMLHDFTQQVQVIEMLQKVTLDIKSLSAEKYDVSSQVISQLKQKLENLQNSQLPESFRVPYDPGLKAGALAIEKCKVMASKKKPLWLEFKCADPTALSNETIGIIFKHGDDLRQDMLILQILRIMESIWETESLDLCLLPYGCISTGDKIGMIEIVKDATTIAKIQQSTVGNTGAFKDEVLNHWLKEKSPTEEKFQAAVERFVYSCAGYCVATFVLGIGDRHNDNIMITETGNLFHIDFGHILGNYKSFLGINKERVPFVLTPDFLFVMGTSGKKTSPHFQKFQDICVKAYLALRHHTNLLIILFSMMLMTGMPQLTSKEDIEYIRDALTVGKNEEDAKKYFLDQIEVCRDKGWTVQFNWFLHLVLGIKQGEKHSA

For orientation: solubility means how much of the substance goes into solution per volume. Usually IC50 stands for the concentration needed to halve the response being measured. For the compound `Cc1nn(C)cc1-n1c(=O)n(C)c2cnc3ccc(-c4cnccn4)cc3c21` [Example 115, 1-(1,3-Dimethyl-1H-pyrazol-4-yl)-3-methyl-8-pyrazin-2-yl-1,3-dihydro-imidazo[4,5-c]quinolin-2-one], in data set [1], the solubility amounted to 128 µg/mL (≈ 345 µM). For the same compound, the IC50 in data set [2] came out at 148 nM; in data set [3], 800 nM; in data set [4] it was 851 nM; in data set [5], 208 nM; in data set [6], 308 nM.
For `Cc1nn(C)c(C)c1-n1c(=O)n(C)c2cnc3ccc(-c4cccc(S(=O)(=O)N(C)C)c4)cc3c21` [Example 53.2, N,N-Dimethyl-3-[3-methyl-2-oxo-1-(1,3,5-trimethyl-1H-pyrazol-4-yl)-2,3-dihydro-1H-imidazo[4,5-c]quinolin-8-yl]-benzenesulfonamide], the solubility in data set [1] is 40 µg/mL (≈ 81.5 µM). Also, the IC50 in data set [2] amounted to 94 nM; in data set [7] it was 843 nM; in data set [3], 93 nM; in data set [4] it was 183 nM; in data set [5] it was 375 nM; in data set [6], 634 nM. The IC50 in data set [8] stood at 672 nM.
Turning to `COc1ccc(-c2ccc3ncc4c(c3c2)n(-c2c(C)cnn2C)c(=O)n4C)cn1` [Example 2.1, 1-(2,4-Dimethyl-2H-pyrazol-3-yl)-8-(6-methoxy-pyridin-3-yl)-3-methyl-1,3-dihydro-imidazo[4,5-c]quinolin-2-one], the solubility in data set [1] was determined as 8 µg/mL (≈ 20 µM). For the same compound, the IC50 in data set [2] stood at 94 nM; in data set [7], 241 nM; in data set [3], 432 nM; in data set [4] it was 140 nM; in data set [5] it was 552 nM; in data set [6], 795 nM. In addition, the IC50 in data set [8] was 946 nM.
On to `COc1ccc(-c2ccc3ncc4c(c3c2)n(-c2c(C)cnn2C)c(=O)n4C)cc1OC` [Example 1.7, 8-(3,4-Dimethoxy-phenyl)-1-(2,4-dimethyl-2H-pyrazol-3-yl)-3-methyl-1,3-dihydro-imidazo[4,5-c]quinolin-2-one], for which the solubility in data set [1] is 6 µg/mL (≈ 14 µM). Further, the IC50 came to 59 nM in data set [2]; 152 nM in data set [7]; 169 nM in data set [3]; 120 nM in data set [4]; 82 nM in data set [5]; 147 nM in data set [6]. The IC50 in data set [8] was 249 nM.
Regarding `Cc1nn(C)c(C)c1-n1c(=O)n(C)c2cnc3ccc(-c4cccnc4)cc3c21` [Example 10.1, 3-Methyl-8-pyridin-3-yl-1-(1,3,5-trimethyl-1H-pyrazol-4-yl)-1,3-dihydro-imidazo[4,5-c]quinolin-2-one], the solubility in data set [1] is above 384 µg/mL. The IC50 in data set [2] is 136 nM; in data set [7], 799 nM; in data set [3], 292 nM; in data set [4], 273 nM; in data set [5], 594 nM; in data set [6], 937 nM. Further, the IC50 in data set [8] stood at 1630 nM.
Consider `CCOc1cncc(-c2ccc3ncc4c(c3c2)n(-c2c(C)nn(C)c2C)c(=O)n4C)c1` [Example 56.3, 8-(5-Ethoxy-pyridin-3-yl)-3-methyl-1-(1,3,5-trimethyl-1H-pyrazol-4-yl)-1,3-dihydro-imidazo[4,5-c]quinolin-2-one], for which the solubility in data set [1] was 300 µg/mL (≈ 700 µM). The IC50 turned out to be 82 nM in data set [2]; 228 nM in data set [7]; 129 nM in data set [3]; 257 nM in data set [4]; 304 nM in data set [5].

For the origin of these results see patent US20140005163A1 (NOVARTIS AG, priority 2010, published 2014).
